This is an account of results in ChEMBL document CHEMBL4425188, “Synthesis and immunostimulatory activity of substituted TLR7 agonists” (Bioorg Med Chem Lett, 2016).

Test [1] deals with T1, Toll-like receptor 7 (Homo sapiens) (UniProt Q9NYK1).
T1 sequence (whole entry): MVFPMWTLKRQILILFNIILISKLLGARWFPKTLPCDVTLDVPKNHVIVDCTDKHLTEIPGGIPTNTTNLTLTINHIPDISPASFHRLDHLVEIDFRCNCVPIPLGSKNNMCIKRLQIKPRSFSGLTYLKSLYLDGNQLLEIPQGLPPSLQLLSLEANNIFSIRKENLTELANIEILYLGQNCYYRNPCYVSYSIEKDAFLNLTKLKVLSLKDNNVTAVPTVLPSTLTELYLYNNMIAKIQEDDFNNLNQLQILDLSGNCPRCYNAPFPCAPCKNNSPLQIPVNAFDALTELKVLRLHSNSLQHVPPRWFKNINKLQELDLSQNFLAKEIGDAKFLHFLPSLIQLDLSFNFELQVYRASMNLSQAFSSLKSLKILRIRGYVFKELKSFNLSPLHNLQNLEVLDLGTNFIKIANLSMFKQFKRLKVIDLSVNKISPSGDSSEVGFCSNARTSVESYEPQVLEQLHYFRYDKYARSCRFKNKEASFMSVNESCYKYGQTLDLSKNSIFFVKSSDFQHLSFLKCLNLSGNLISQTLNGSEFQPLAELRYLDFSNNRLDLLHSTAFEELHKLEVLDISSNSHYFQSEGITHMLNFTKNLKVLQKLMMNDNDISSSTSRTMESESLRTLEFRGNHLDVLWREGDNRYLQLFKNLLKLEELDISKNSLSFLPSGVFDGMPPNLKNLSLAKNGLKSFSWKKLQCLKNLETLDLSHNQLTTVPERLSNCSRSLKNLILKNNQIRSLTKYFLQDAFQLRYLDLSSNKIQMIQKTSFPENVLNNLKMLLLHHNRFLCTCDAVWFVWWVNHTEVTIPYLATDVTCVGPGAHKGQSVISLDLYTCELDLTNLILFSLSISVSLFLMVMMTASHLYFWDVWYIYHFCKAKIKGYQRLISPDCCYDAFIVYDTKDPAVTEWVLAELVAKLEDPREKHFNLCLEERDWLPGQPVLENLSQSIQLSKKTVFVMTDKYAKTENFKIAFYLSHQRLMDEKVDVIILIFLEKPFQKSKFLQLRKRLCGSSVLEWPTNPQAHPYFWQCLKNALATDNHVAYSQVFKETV
The test is described as follows: Agonist activity at human TLR7 expressed in HEK293 cells at <= 50 ng/ml by QUANTI-blue SEAP reporter gene assay. In kind it is cell-based. A general note: In a reporter assay the amount or activity of a reporter protein is the signal.

Test [2] deals with T2, Toll-like receptor 8 (Homo sapiens) (UniProt Q9NR97).
T2 sequence (whole entry): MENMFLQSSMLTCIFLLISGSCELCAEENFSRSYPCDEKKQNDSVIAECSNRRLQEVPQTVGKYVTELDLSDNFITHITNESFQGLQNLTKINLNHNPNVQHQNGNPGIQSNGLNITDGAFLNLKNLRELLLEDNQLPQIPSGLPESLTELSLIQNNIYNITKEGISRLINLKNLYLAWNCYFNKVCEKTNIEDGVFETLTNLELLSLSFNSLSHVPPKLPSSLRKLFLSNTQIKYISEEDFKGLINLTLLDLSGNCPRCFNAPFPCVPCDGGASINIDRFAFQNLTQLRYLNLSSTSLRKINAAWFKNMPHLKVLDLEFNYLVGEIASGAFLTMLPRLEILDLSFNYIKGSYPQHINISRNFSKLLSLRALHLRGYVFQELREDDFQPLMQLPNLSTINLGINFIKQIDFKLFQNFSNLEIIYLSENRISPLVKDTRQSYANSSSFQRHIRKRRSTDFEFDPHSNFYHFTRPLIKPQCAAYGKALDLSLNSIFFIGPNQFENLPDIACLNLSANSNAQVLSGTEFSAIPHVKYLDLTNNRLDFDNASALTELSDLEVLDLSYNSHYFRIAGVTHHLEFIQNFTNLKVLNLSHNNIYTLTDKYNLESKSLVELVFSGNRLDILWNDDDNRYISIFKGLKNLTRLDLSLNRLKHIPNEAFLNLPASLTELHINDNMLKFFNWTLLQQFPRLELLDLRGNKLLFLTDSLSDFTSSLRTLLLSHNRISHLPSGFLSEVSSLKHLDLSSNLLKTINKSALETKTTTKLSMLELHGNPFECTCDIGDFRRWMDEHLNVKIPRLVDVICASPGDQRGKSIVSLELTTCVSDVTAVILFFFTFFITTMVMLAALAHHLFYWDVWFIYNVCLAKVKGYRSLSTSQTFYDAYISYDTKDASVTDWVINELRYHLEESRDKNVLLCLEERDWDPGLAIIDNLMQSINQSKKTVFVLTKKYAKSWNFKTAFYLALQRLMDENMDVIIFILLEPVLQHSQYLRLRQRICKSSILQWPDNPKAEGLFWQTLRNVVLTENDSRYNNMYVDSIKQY
Kind of test: Agonist activity at human TLR8 expressed in HEK293 cells at 5 to 1000 ng/ml by QUANTI-blue SEAP reporter gene assay. In kind it is cell-based.

Test [3] has as its target T3, Toll-like receptor 9 (Homo sapiens) (UniProt Q9NR96).
T3 sequence (whole entry): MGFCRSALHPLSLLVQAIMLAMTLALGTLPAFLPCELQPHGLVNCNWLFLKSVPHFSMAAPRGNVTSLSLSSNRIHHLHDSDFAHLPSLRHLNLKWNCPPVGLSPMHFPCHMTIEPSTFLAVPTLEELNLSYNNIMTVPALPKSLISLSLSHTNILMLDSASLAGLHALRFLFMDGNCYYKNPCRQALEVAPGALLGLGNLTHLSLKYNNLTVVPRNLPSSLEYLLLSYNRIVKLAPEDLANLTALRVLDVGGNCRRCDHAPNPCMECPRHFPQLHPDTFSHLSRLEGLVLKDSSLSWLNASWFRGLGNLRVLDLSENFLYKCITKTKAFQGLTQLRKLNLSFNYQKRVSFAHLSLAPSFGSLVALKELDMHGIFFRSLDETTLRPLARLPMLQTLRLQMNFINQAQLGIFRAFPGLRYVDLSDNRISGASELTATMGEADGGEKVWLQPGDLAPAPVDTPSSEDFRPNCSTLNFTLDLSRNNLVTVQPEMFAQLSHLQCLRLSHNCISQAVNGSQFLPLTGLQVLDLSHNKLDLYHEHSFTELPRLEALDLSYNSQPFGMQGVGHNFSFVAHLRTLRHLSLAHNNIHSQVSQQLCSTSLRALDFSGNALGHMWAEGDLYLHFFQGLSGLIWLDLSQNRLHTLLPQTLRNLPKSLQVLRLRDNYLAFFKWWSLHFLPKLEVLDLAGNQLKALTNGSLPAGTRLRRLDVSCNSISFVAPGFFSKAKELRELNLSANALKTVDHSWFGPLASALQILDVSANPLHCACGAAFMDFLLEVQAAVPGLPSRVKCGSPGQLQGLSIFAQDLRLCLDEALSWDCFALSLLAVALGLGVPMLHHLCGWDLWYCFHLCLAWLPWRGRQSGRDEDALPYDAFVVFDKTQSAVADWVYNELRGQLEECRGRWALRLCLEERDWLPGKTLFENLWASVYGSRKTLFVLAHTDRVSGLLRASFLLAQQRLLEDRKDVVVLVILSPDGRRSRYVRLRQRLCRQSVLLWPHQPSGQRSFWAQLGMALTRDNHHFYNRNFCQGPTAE
The test is described as follows: Agonist activity at human TLR9 expressed in HEK293 cells at 5 to 1000 ng/ml by QUANTI-blue SEAP reporter gene assay. In kind it is cell-based.

In a further test the test system is HEK293. The test is described as follows: Induction of SEAP reporter gene expression in TLR-deficient HEK293 cells at 5 to 1000 ng/ml. In kind it is functional, cell-based. As to conditions: Homo sapiens.
The species named for the next test is Homo sapiens. Kind of test: Immunostimulatory activity in CFSE-labeled human NK cells assessed as TLR7 agonist-induced cell proliferation at 2 to 200 nM after 6 days by FACS analysis. In kind it is functional. (A flow cytometer gives signals particle by particle.)
In another test the test system is B cell. The test is described as follows: Immunostimulatory activity in CFSE-labeled human B cells assessed as TLR7 agonist-induced cell proliferation after 6 days by FACS analysis. As to conditions: 144 h. In kind it is functional, cell-based.
In another test the test system is T-cell. Kind of test: Immunostimulatory activity in CFSE-labeled human T cells assessed as TLR7 agonist-induced cell proliferation at 2 to 200 nM after 6 days by FACS analysis. In kind it is functional, cell-based.
In test [4] the target is T1, Toll-like receptor 7 (Homo sapiens). Kind of test: Agonist activity at human TLR7 expressed in HEK293 cells at 1 ng/ml by QUANTI-blue SEAP reporter gene assay. In kind it is cell-based.

The source made the active and inactive calls. No cut-off for these calls is given here.

`CCCCOc1nc(N)c2nc(O)n(Cc3ccc(CCCN)cc3)c2n1`: the result in test [1] was Active. Also, the outcome (in test [2]; in test [3]; with HEK293) was inactive.
Take `CCCCOc1nc(N)c2nc(S)n(Cc3ccccc3)c2n1`: the outcome in test [1] was Active. Besides, the result (in test [2]; in the test listed under Homo sapiens; in test [3]; with HEK293; in the test on T-cell) was inactive. The EC50 – broadly, the concentration giving half of the maximal effect – with B cell is 2690 nM.
Take `CCCCOc1nc(N)c2nc(OCc3ccccc3)n(Cc3ccccc3)c2n1`: the result (in test [2]; in test [3]; in the test on HEK293; in test [4]) was inactive.
As for `CCCCOc1nc(N)c2nc(O)n(Cc3ccc(C(=O)NCCOCCOCCNC(=O)CCC(=O)N4Cc5ccccc5C#Cc5ccccc54)cc3)c2n1`, the result in test [1] was Active. The outcome (in test [2]; in test [3]; in the test on HEK293) was inactive.
`CCCCOc1nc(N)c2nc(SCc3ccc(C#N)cc3)n(Cc3ccccc3)c2n1`: the outcome (in test [2]; in test [3]; with HEK293; in test [4]) was inactive.
Turning to `CCCCOc1nc(N)c2nc(O)n(Cc3ccc(C(=O)NCCOCCOCCN)cc3)c2n1`, in test [1], the outcome was Active. Besides, the outcome (in test [2]; in the test filed under Homo sapiens; in test [3]; in the test on HEK293; in the test with T-cell) was inactive. The EC50 with B cell is 26 nM.
For `CCCCOc1nc(N)c2c(n1)n(Cc1ccccc1)c(=O)n2Cc1ccccc1`, the outcome (in test [2]; in test [3]; in the test with HEK293; in test [4]) was inactive.
`CCCCOc1nc(N)c2nc(SCc3ccc(Br)cc3)n(Cc3ccccc3)c2n1`: the outcome (in test [2]; in test [3]; with HEK293; in test [4]) was inactive.
For the compound `CCCCOc1nc(N)c2nc(SCC(=O)O)n(Cc3ccccc3)c2n1`, the outcome (in test [2]; in test [3]; in the test on HEK293; in test [4]) was inactive.
Turning to `CCCCOc1nc(N)c2nc(O)n(Cc3ccc(C#CCN)cc3)c2n1`, in test [1], the result was Active. The result (in test [2]; in test [3]; with HEK293) was inactive.
Consider `CCCCOc1nc(N)c2nc(O)n(Cc3ccc(I)cc3)c2n1`, for which, in test [1], the result was Active. Besides, the result (in test [2]; in the test filed under Homo sapiens; in test [3]; with HEK293; in the test on T-cell) was inactive. Further, in the test with B cell, the EC50 worked out at 126 nM.
Regarding `CCCCOc1nc(N)c2nc(O)n(Cc3ccc(C(=O)O)cc3)c2n1`, the result in test [1] was Active. The outcome (in test [2]; in the test filed under Homo sapiens; in test [3]; with HEK293; in the test on T-cell) was inactive. In addition, the concentration giving a half-maximal response (EC50) with B cell is 480 nM.
Consider `CCCCOc1nc(N)c2nc(O)n(Cc3ccc(C(=O)NCCN)cc3)c2n1`, for which the result in test [1] was Active. Moreover, the outcome (in test [2]; in the test listed under Homo sapiens; in test [3]; with HEK293; with T-cell) was inactive. The concentration for a half-maximal effect (EC50) in the test on B cell stood at 52.4 nM.
`CCCCOc1nc(N)c2nc(NCC)n(Cc3ccccc3)c2n1`: the result (in test [2]; in test [3]; in the test on HEK293) was inactive.
Regarding `CCCCOc1nc(N)c2nc(O)n(Cc3ccc(C#CCO)cc3)c2n1`, the outcome in test [1] was Active. The result (in test [2]; in the test filed under Homo sapiens; in test [3]; with HEK293; with T-cell) was inactive. In addition, in the test on B cell, the EC50 came to 58.3 nM.
